# Values of other authors, collected in patent US6258845A (priority 1999, dated 2001).
# Values joined by “and” are separate entries in the source; they are usually repeats but may differ in a detail not shown here. Equal values may be shown once. “Also recorded” adds a separate entry of the source.
# Tests used:
# [1] = in vivo; cited from earlier work
# colon cancer incidence = conditions: cited from earlier work
# [2] = system: AOM-treated rat model of colon carcinogenesis; conditions: in vivo; cited from earlier work
# [3] = system: colon mucosal prostaglandins; conditions: cited from earlier work
# COX (cyclooxygenase) = conditions: cited from earlier work
# [4] = cited from earlier work
# [5] = system: carcinogenesis in rodent/animal models; conditions: in vivo; cited from earlier work
# [6] = system: tumors harboring Ki-ras mutations in AOM-treated rats; conditions: cited from earlier work
structure (smiles),measurement,setting,value
CC1(C)S[C@@H]2[C@H](NC(=O)[C@H](N)c3ccc(O)cc3)C(=O)N2[C@H]1C(=O)O [amoxicillin],adverse effects,[1],diarrhea and super-infections
CC(=O)Oc1ccccc1C(=O)O [aspirin],"beneficial effect, three large cohort studies",colon cancer incidence; in vivo,conflicting reports on the beneficial effect
same,weekly total dose with evident effect on colon cancer incidence,colon cancer incidence; weekly total dose,≥ 1000 mg
same,inhibition of colon carcinogenesis in AOM-treated rat model,[2],effectively inhibit colon carcinogenesis
same,lowest dose decreasing PGF2α in colon mucosa,[3]; in vivo,40 mg
same,threshold dose of effect on colon mucosa,[3]; in vivo,81 mg and 80 mg
same,effect on colon mucosal prostaglandins,"[3]; low doses, another group of investigators",no such effect on colon mucosal prostaglandins
same,upper gastrointestinal mucosa prostaglandins,[3]; low doses,substantial reduction of prostaglandins; also recorded: substantial education of prostaglandins
same,COX / prostaglandin synthesis inhibition,COX (cyclooxygenase),inhibitor of cyclooxygenase
CC[C@H]1OC(=O)[C@H](C)[C@@H](O[C@H]2C[C@@](C)(OC)[C@@H](O)[C@H](C)O2)[C@H](C)[C@@H](O[C@@H]2O[C@H](C)C[C@H](N(C)C)[C@H]2O)[C@](C)(OC)C[C@@H](C)C(=O)[C@H](C)[C@@H](O)[C@]1(C)O [clarithromycin],diarrhea,[1],10%
same,pseudomembranous colitis,[1],1%
COc1ccc2c(c1)c(CC(=O)O)c(C)n2C(=O)c1ccc(Cl)cc1 [indomethacin],inhibition of colon carcinogenesis in AOM-treated rat model,[2],effectively inhibit colon carcinogenesis
same,COX / prostaglandin synthesis inhibition,COX (cyclooxygenase),prostaglandin synthase inhibitor
Cc1c(OCC(F)(F)F)ccnc1C[S+]([O-])c1nc2ccccc2[nH]1 (stereo not drawn) [lansoprazole],diarrhea,[1],8%
same,headache,[1],5%
same,nausea,[1],3%
Cc1ncc([N+](=O)[O-])n1CCO [metronidazole],disulfiram-like reaction with alcohol ingestion,[1],20%
same,rash,[1],5%
COc1ccc2[nH]c([S+]([O-])Cc3ncc(C)c(OC)c3C)nc2c1 (stereo not drawn) [omeprazole],dizziness,[1],2%
"CN1C(C(=O)Nc2ccccn2)=C(O)c2ccccc2S1(=O)=O [piroxicam, 4-Hydroxy-2-methyl-N-2-pyridyl-2H1,2-benzothiazine-3-carboxamide 1,1-dioxide]",inhibition of colon carcinogenesis in AOM-treated rat model,[2],effectively inhibit colon carcinogenesis
same,side effects,[4]; IIb trial / meta-analysis,has more side effects than other NSAIDs
same,half-life,"[4]; human, in vivo",long half-life
same,most frequently reported side effects,"[4]; human, in vivo",Gastrointestinal complaints
same,chemoprevention / inhibition of tumor development in animal models,[5],the most effective chemoprevention agent in animal models
same,Ki-ras mutation / tumors harboring an activated Ki-ras,[6],reduced Ki-ras mutation frequencies
same,amount of biochemically active p21 ras in existing tumors,[6],reduced the amount of biochemically active p21 ras in existing tumors
same,tumors harboring Ki-ras mutations,[6]; reduced from 90%,25%
